Source: the supplement of paper PMC10627819

Experiments:
B. subtilis 168 [1] = assay: fitness (endpoint OD595 vs no drug) (fraction); higher = more growth
In short: (§1)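 Plates with 384 wells were inoculated at OD595 0.01 using 30 µl of TSB, LB Lennox or CY, or 55 µl for S. pneumoniae. Incubation was at 37 °C, with OD595 measured every 30 min for 14 h. Fitness is the stationary-phase transition optical density over the robust mean of no-drug control wells, after first-reading background subtraction; it is capped at 1.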

S. aureus DSM 20231 [2] = assay: as above
In short: as §1

S. pneumoniae D39V [3] = assay: as above
In short: as §1

B. subtilis 168 [4] = assay: Bliss interaction score (quartile over a dose matrix) (fitness difference); higher = more antagonism (negative = synergy)
In short: (§2)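 Growth was read as OD595 when cultures entered stationary phase, and each value was divided by the plate's robust no-drug mean and capped at 1. This normalised ratio is the fitness value, and fitness for each single drug came from the combination data. The Bliss score subtracts the expected fitness, taken as the product, from the observed fitness and is given as quartiles across technical, biological and donor/recipient replicates.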

S. aureus DSM 20231 [5] = assay: as above
In short: as §2

S. aureus Newman = assay: as above
In short: as §2

S. pneumoniae D39V [6] = assay: as above
In short: as §2
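Throughout, for Bliss interaction score (quartile over a dose matrix): first quartile when negative (synergy) and third quartile when positive (antagonism).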

CCC[C@@H]1C[C@@H](C(=O)N[C@@H]([C@H]2O[C@H](SC)[C@H](O)[C@@H](O)[C@H]2O)[C@@H](C)O)N(C)C1 [Lincomycin] + CN[C@@H]1[C@H](O)[C@H](NC)[C@H]2O[C@@]3(O)C(=O)C[C@@H](C)O[C@H]3O[C@@H]2[C@H]1O [Spectinomycin]
fitness
Conditions	partner 2 µg/mL	partner 4 µg/mL	partner 8 µg/mL	partner 16 µg/mL
B. subtilis 168 [1], first compound 0.1 µg/mL	0.923	0.923	0.849	–
B. subtilis 168 [1], first compound 0.2 µg/mL	0.937	0.929	0.847	–
B. subtilis 168 [1], first compound 0.4 µg/mL	0.907	0.859	0.861	–
S. aureus DSM 20231 [2], first compound 0.1 µg/mL	–	0.819	0.732	0.566
S. aureus DSM 20231 [2], first compound 0.2 µg/mL	–	0.581	0.54	0.351
S. aureus DSM 20231 [2], first compound 0.4 µg/mL	–	–	–	0.122
S. pneumoniae D39V [3], first compound 0.215 µg/mL	–	0.777	0.787	0.721
S. pneumoniae D39V [3], first compound 0.43 µg/mL	–	0.688	0.713	0.616
S. pneumoniae D39V [3], first compound 0.86 µg/mL	–	0.268	0.286	0.158

fitness, one replicate
Conditions	first compound 0.1 µg/mL	first compound 0.2 µg/mL	first compound 0.4 µg/mL	first compound 0.8 µg/mL
S. aureus DSM 20231 [2], partner 32 µg/mL	0.377	0.176	0.0758	–
S. aureus DSM 20231 [2], partner 64 µg/mL	0.0561	0.042	0.0347	–
S. pneumoniae D39V [3], partner 4 µg/mL	–	0.777	0.659	0.412
S. pneumoniae D39V [3], partner 8 µg/mL	–	0.752	0.63	0.35

Conditions	Bliss interaction score
B. subtilis 168 [4]	-0.0786
S. aureus DSM 20231 [5]	-0.175
S. aureus Newman	-0.195
S. pneumoniae D39V [6]	-0.0914

CCC[C@@H]1C[C@@H](C(=O)N[C@@H]([C@H]2O[C@H](SC)[C@H](O)[C@@H](O)[C@H]2O)[C@@H](C)O)N(C)C1 [Lincomycin] + Cc1ncc([N+](=O)[O-])n1CCO [Metronidazole]
Conditions	fitness
B. subtilis 168 [1], first compound 0.1 µg/mL, partner 0.625 µg/mL	0.971
B. subtilis 168 [1], first compound 0.1 µg/mL, partner 1.25 µg/mL	0.93
B. subtilis 168 [1], first compound 0.1 µg/mL, partner 2.5 µg/mL	0.887
B. subtilis 168 [1], first compound 0.2 µg/mL, partner 0.625 µg/mL	0.928
B. subtilis 168 [1], first compound 0.2 µg/mL, partner 1.25 µg/mL	0.9
B. subtilis 168 [1], first compound 0.2 µg/mL, partner 2.5 µg/mL	0.876
B. subtilis 168 [1], first compound 0.4 µg/mL, partner 0.625 µg/mL	0.991
B. subtilis 168 [1], first compound 0.4 µg/mL, partner 1.25 µg/mL	0.894
B. subtilis 168 [1], first compound 0.4 µg/mL, partner 2.5 µg/mL	0.933
S. aureus DSM 20231 [2], first compound 0.1 µg/mL, partner 0.625 µg/mL	0.884
S. aureus DSM 20231 [2], first compound 0.1 µg/mL, partner 1.25 µg/mL	0.953
S. aureus DSM 20231 [2], first compound 0.1 µg/mL, partner 2.5 µg/mL	≥ 1
S. aureus DSM 20231 [2], first compound 0.2 µg/mL, partner 0.625 µg/mL	0.812
S. aureus DSM 20231 [2], first compound 0.2 µg/mL, partner 1.25 µg/mL	0.853
S. aureus DSM 20231 [2], first compound 0.2 µg/mL, partner 2.5 µg/mL	0.866
S. pneumoniae D39V [3], first compound 0.2 µg/mL, partner 1.073 µg/mL	0.752
S. pneumoniae D39V [3], first compound 0.2 µg/mL, partner 2.145 µg/mL	0.681
S. pneumoniae D39V [3], first compound 0.2 µg/mL, partner 4.29 µg/mL	0.659
S. pneumoniae D39V [3], first compound 0.215 µg/mL, partner 1.25 µg/mL	0.874
S. pneumoniae D39V [3], first compound 0.215 µg/mL, partner 2.5 µg/mL	0.87
S. pneumoniae D39V [3], first compound 0.215 µg/mL, partner 5 µg/mL	0.844
S. pneumoniae D39V [3], first compound 0.4 µg/mL, partner 1.073 µg/mL	0.68
S. pneumoniae D39V [3], first compound 0.4 µg/mL, partner 2.145 µg/mL	0.654
S. pneumoniae D39V [3], first compound 0.4 µg/mL, partner 4.29 µg/mL	0.647
S. pneumoniae D39V [3], first compound 0.43 µg/mL, partner 1.25 µg/mL	0.765
S. pneumoniae D39V [3], first compound 0.43 µg/mL, partner 2.5 µg/mL	0.761
S. pneumoniae D39V [3], first compound 0.43 µg/mL, partner 5 µg/mL	0.738
S. pneumoniae D39V [3], first compound 0.8 µg/mL, partner 1.073 µg/mL	0.502
S. pneumoniae D39V [3], first compound 0.8 µg/mL, partner 2.145 µg/mL	0.435
S. pneumoniae D39V [3], first compound 0.8 µg/mL, partner 4.29 µg/mL	0.428
S. pneumoniae D39V [3], first compound 0.86 µg/mL, partner 1.25 µg/mL	0.579
S. pneumoniae D39V [3], first compound 0.86 µg/mL, partner 2.5 µg/mL	0.578
S. pneumoniae D39V [3], first compound 0.86 µg/mL, partner 5 µg/mL	0.557

Conditions	Bliss interaction score
B. subtilis 168 [4]	-0.0532
S. aureus DSM 20231 [5]	0.0836
S. aureus Newman	0.073
S. pneumoniae D39V [6]	0.138

O=C(O[C@@H]1Cc2c(O)cc(O)cc2O[C@@H]1c1cc(O)c(O)c(O)c1)c1cc(O)c(O)c(O)c1 [EGCG] + COc1cc(Cc2cnc(N)nc2N)cc(OC)c1OC [Trimethoprim]
fitness, B. subtilis 168 [1], one replicate
Conditions	partner 0.1 µg/mL	partner 0.2 µg/mL	partner 0.4 µg/mL	partner 1 µg/mL	partner 2 µg/mL
first compound 6.25 µg/mL	0.856	0.624	0.464	0.346	0.485
first compound 12.5 µg/mL	0.438	0.252	0.235	0.127	0.13
first compound 25 µg/mL	0.199	0.102	0.0997	0.0869	0.0586

fitness
Conditions	partner 0.125 µg/mL	partner 0.25 µg/mL	partner 0.5 µg/mL	partner 1 µg/mL
B. subtilis 168 [1], first compound 6.25 µg/mL	0.611	–	0.508	–
B. subtilis 168 [1], first compound 12.5 µg/mL	0.363	0.426	0.41	–
B. subtilis 168 [1], first compound 25 µg/mL	0.232	–	0.244	–
S. aureus DSM 20231 [2], first compound 12.5 µg/mL	0.621	0.544	0.338	0.0444
S. aureus DSM 20231 [2], first compound 25 µg/mL	0.675	0.541	0.3	0.0338
S. aureus DSM 20231 [2], first compound 50 µg/mL	0.71	0.588	0.292	0.0285

Conditions	Bliss interaction score
B. subtilis 168 [4]	-0.0682
S. aureus DSM 20231 [5]	0.0729
S. aureus Newman	0.115
S. pneumoniae D39V [6]	0.12

COc1cc(Cc2cnc(N)nc2N)cc(OC)c1OC [Trimethoprim] + CC1=C\[C@@H](O)CC(=O)Cc2nc(co2)C(=O)N2CCC=C2C(=O)O[C@H](C(C)C)[C@H](C)/C=C/C(=O)NC\C=C\1 [Virginiamycin M1]
fitness, one replicate
Conditions	partner 0.0625 µg/mL	partner 0.125 µg/mL	partner 0.25 µg/mL	partner 0.5 µg/mL	partner 1 µg/mL
B. subtilis 168 [1], first compound 0.1 µg/mL	0.85	0.855	0.991	–	–
B. subtilis 168 [1], first compound 0.125 µg/mL	0.738	0.722	0.71	–	–
B. subtilis 168 [1], first compound 0.2 µg/mL	0.755	0.808	0.865	–	–
B. subtilis 168 [1], first compound 0.4 µg/mL	0.57	0.483	0.576	–	–
B. subtilis 168 [1], first compound 1 µg/mL	0.509	0.267	0.282	–	–
B. subtilis 168 [1], first compound 2 µg/mL	0.408	0.285	0.377	–	–
S. aureus DSM 20231 [2], first compound 0.125 µg/mL	0.597	0.715	–	0.7	0.541
S. aureus DSM 20231 [2], first compound 0.25 µg/mL	–	–	–	0.573	0.626
S. aureus DSM 20231 [2], first compound 0.5 µg/mL	–	–	–	0.155	0.204

fitness
Conditions	first compound 0.125 µg/mL	first compound 0.25 µg/mL	first compound 0.5 µg/mL	first compound 1 µg/mL
B. subtilis 168 [1], partner 0.0625 µg/mL	–	–	0.585	–
B. subtilis 168 [1], partner 0.125 µg/mL	–	0.704	0.471	–
B. subtilis 168 [1], partner 0.25 µg/mL	–	–	0.557	–
S. aureus DSM 20231 [2], partner 0.0625 µg/mL	–	0.576	0.0684	0.0383
S. aureus DSM 20231 [2], partner 0.125 µg/mL	–	0.584	0.0768	0.0445
S. aureus DSM 20231 [2], partner 0.25 µg/mL	0.682	0.618	0.119	0.0595

Conditions	Bliss interaction score
B. subtilis 168 [4]	0.0852
S. aureus DSM 20231 [5]	-0.0966
S. aureus Newman	0.0354
S. pneumoniae D39V [6]	0.0652
